Measurements reported in US7321056B2, “Selective peroxisome proliferator activated receptor modulators” (Eli Lilly and Company, priority 2003, dated 2008).
Read-outs that look alike come from different tables or passages of the source.

Tests used:
PPARα [1] = target: T1, PPARα (Homo sapiens, UniProt Q07869); test: Competitive displacement binding assay (SPA), PPARα; settings: PPARα/RXRα
T1 construct: made in house; host or cells: baculovirus expression system
Method: (§1) Binding assays are performed using scintillation proximity assay (SPA) technology, PPAR receptors, and corresponding radiolabeled ligands. PPARα and PPARγ along with their heterodimeric partner, retinoid X receptor α, are each produced using a baculovirus expression system. Biotinylated oligonucleotides containing PPAR response elements (PPREs) are used to couple the corresponding receptor dimers to yttrium silicate streptavidin-coated SPA beads. PPARγ- and PPARα-specific ligands are labeled with tritium and used in the appropriate corresponding assays. The IC50 values (compound concentration which causes 50% inhibition) for each competing compound are calculated after deduction of non-specific binding (measured in the presence of 10 μM unlabeled ligand). Compounds are evaluated using an 11-point dose response curve with concentrations ranging from 0.169 nM to 10 μM. Reported values represent means from one to seven separate experiments.
T1 sequence (Q07869 whole entry, the tested form may be a part): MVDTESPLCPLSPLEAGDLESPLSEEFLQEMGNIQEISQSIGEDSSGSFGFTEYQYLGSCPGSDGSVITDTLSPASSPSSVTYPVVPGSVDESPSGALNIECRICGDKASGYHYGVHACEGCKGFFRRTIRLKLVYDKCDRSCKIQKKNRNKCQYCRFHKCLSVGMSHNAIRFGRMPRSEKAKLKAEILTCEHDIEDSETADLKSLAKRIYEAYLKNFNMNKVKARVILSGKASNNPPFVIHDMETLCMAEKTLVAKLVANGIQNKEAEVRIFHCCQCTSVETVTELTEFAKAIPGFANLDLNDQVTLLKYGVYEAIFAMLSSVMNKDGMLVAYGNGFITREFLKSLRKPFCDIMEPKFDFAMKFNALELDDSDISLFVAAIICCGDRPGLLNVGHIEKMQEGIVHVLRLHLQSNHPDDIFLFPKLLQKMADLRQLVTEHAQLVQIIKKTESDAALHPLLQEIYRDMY
T1 sequence (P19793 whole entry, further chain, the tested form may be a part): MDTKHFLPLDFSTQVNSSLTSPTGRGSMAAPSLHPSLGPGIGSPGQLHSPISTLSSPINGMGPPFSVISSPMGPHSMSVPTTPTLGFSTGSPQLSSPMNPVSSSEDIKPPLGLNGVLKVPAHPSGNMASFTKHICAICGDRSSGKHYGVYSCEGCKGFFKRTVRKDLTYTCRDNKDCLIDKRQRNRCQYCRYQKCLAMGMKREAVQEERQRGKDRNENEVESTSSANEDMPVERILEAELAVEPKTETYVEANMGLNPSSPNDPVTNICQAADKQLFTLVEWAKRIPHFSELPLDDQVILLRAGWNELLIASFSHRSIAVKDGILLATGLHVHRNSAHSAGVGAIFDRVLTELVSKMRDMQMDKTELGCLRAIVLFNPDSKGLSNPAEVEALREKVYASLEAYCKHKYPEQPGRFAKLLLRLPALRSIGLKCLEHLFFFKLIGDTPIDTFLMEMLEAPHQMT

PPARγ [2] = target: T2, PPARγ (Homo sapiens, UniProt P37231); test: Competitive displacement binding assay (SPA), PPARγ; settings: PPARγ/RXRα
T2 construct: made in house; host or cells: baculovirus expression system
Method: as §1
T2 sequence (P37231 whole entry, the tested form may be a part): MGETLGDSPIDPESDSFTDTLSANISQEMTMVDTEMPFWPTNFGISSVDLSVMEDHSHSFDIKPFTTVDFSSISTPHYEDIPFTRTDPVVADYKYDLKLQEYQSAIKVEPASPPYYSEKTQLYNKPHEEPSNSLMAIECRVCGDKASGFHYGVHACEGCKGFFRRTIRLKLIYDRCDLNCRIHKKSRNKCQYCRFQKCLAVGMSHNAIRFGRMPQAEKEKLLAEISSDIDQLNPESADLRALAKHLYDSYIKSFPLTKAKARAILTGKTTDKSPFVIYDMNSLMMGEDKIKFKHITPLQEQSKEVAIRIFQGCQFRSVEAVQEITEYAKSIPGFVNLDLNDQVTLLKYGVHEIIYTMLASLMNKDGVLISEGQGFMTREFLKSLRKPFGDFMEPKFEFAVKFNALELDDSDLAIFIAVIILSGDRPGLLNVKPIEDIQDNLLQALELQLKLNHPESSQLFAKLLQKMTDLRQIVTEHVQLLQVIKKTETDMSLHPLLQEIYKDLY
T2 sequence (P19793 whole entry, further chain, the tested form may be a part): as the sequence (P19793 whole entry, further chain, the tested form may be a part) above

PPARα [3] = target: T3, PPARα (Homo sapiens, UniProt Q07869); test: Cotransfection (CTF) assay, PPARα GAL4 chimeric system in CV-1 cells; format: cell-based
T3 construct: For PPARα, a GAL4 chimeric system is the standard CTF assay performed
T3 sequence (Q07869 200-468 limits assumed): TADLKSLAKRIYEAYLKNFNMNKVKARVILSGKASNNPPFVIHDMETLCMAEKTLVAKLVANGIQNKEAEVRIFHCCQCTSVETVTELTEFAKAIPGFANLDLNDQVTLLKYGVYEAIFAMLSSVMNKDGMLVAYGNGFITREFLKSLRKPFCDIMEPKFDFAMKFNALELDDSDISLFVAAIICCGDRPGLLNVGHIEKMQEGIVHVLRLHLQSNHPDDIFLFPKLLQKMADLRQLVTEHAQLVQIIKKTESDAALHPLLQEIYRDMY
Text: (§2) PPARγ or PPARα are constitutively expressed using plasmids containing the cytomegalovirus promoter. Reporter plasmids for the PPARγ CTF assays contain PPREs from the following genes: acyl coA oxidase (AOX); apolipoprotein A1 (ApoA1); lipoprotein lipase (LPL); or enoyl-CoA hydratase/3-hydroxyacyl-CoA dehydrogenase (HD) plus the thymidine kinase (TK) promoter upstream of the luciferase reporter cDNA. A PPARγ […] galactosidase (GAL4) chimeric system is also used. For PPARα, a GAL4 chimeric system is the standard CTF assay performed. All assays are done in CV-1 cells. Compounds are tested in full log dilution, from 0.1 nM to 10 μM in duplicate. Percent efficacies are determined relative to reference molecules with the efficacy value reflecting the greatest amount of agonist activity achieved in the CTF assay for each compound. Median effective concentration (EC50) values are determined by computer fit to a concentration-response curve. An EC50 value is not calculated if the efficacy for the compound is <20%. Reported values represent means from two to nine separate experiments.

[4] = target: T4, PPARγ ligand binding domain / CREB-binding protein (CBP) (Homo sapiens, UniProt P37231); test: Co-factor recruitment assay (mammalian-2-hybrid, CV-1 cells), CBP; format: cell-based
T4 construct: expressed in transfected cells; host or cells: CV-1 cells
Text: (§3) A mammalian-2-hybrid assay system in CTF format is done in CV-1 cells. The following plasmids are used: a mammalian expression vector encoding a fusion of the GAL4 DNA binding domain with the PPARγ ligand binding domain; a mammalian expression vector encoding a fusion of the VP16 transactivation domain with the nuclear receptor interaction domain of the respective co-activators: CREB-binding protein (CBP), peroxisome proliferator-activated receptor gamma coactivator-1 (PGC-1), activating signal cointegrator-2 (ASC-2), thyroid hormone receptor-activated protein complex (TRAP220), and the peptide C33; and a reporter plasmid (multimerized GAL4 binding sites/minimal TK promoter driving a luciferase cDNA). Cells are transfected in batch format and treated with compound (full log dilution from 0.1 nM to 10 μM) or vehicle for 24 hours. Subsequently, the cells are lysed and luciferase activity is measured. Luciferase activity serves as the endpoint for interaction between co-activator and receptor. The data are presented as % efficacy relative to a PPARγ full agonist and represent means from four to six separate experiments.

[5] = target: T5, PPARγ ligand binding domain / PGC-1 (Homo sapiens, UniProt P37231); test: Co-factor recruitment assay (mammalian-2-hybrid, CV-1 cells), PGC-1; format: cell-based
T5 construct: expressed in transfected cells; host or cells: CV-1 cells
T5 sequence (P37231 238-503 limits assumed): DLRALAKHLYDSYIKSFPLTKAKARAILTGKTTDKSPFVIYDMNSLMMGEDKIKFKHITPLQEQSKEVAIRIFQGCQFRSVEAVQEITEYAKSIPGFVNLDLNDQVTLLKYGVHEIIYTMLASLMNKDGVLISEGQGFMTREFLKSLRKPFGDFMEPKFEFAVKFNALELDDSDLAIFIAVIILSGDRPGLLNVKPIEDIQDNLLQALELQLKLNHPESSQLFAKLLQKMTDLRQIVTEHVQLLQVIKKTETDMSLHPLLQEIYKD
T5 sequence (Q9UBK2 1-798 partner): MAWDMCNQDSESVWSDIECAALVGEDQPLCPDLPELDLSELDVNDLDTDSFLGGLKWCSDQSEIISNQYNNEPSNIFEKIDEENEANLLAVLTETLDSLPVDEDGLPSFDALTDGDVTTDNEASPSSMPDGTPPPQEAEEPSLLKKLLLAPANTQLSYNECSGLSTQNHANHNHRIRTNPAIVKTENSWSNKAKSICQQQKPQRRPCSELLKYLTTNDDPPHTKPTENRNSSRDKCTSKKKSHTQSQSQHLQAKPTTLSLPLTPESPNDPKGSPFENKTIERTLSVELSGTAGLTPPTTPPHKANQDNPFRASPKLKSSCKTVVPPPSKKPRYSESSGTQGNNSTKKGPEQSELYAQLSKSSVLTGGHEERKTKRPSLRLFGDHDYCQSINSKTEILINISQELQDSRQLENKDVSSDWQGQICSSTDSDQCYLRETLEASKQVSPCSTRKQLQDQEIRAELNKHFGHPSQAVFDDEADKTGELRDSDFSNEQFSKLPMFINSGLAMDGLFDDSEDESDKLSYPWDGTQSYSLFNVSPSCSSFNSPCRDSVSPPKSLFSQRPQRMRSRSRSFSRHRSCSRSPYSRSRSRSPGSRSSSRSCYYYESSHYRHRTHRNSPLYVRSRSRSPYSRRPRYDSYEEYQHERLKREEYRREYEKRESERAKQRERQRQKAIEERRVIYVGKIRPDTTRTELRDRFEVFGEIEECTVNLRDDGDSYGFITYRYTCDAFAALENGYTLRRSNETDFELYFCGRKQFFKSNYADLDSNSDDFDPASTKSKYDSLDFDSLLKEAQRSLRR
Text: as §3

[6] = target: T6, PPARγ ligand binding domain / TRAP220 (Homo sapiens, UniProt P37231); test: Co-factor recruitment assay (mammalian-2-hybrid, CV-1 cells), TRAP220; format: cell-based
T6 construct: expressed in transfected cells; host or cells: CV-1 cells
Text: as §3

[7] = target: T7, PPARγ ligand binding domain / ASC-2 (Homo sapiens, UniProt P37231); test: Co-factor recruitment assay (mammalian-2-hybrid, CV-1 cells), ASC-2; format: cell-based
T7 construct: expressed in transfected cells; host or cells: CV-1 cells
Text: as §3

[8] = target: T8, PPARγ ligand binding domain / peptide C33 (Homo sapiens, UniProt P37231); test: Co-factor recruitment assay (mammalian-2-hybrid, CV-1 cells), peptide C33; format: cell-based
T8 construct: expressed in transfected cells; host or cells: CV-1 cells
T8 sequence (P37231 238-503 limits assumed): T5 sequence (P37231 238-503 limits assumed)
Text: as §3

diabetic (db/db) mice = test: Glucose, triglyceride, hematocrit levels and body weight gain in diabetic mice; settings: 14 days; for plasma glucose normalization: db/db mice
Method: Five-week-old male diabetic (db/db) mice (Harlan Laboratories, Indianapolis, Ind.) are housed in plastic cages (n=6/cage; cage size is approximately 10×20×8″ with aspen chip bedding) with free access to water (sipper system—city tap water) and food (Purina 5008). After two weeks of acclimation, animals (7 weeks of age) are bled on day 0 at 1000-1200 h (lights on 0600 h) and assigned to treatment groups (n=5 or 6) based on starting glucose values. Compound or vehicle only treatments are administered daily by oral gavage at approximately 0730 h. Body weights are measured at the beginning (day 0) and end (day 7 or day 14) of the studies. Blood is collected in heparinized tubes from the tail of nonfasted animals two to three hours after the last dose. Hematocrit, glucose and triglycerides levels are then determined. The reported values for glucose and triglyceride levels represent the % of normalization compared to the lean littermate values set at 100% or glucose normalization calculated based on a normal glucose level of 250 mg/dl. Statistical significance between experimental groups is assessed using a two-sided student's t-test.
Plasma glucose and hematocrit levels along with body weight are measured before the study began (day 0) and at the end of the study (day 14).
Plasma glucose, triglyceride, and hematocrit levels along with body weight are measured before the study began (day 0) and at the end of the study (day 7).

PPARγ [9] = target: T9, PPARγ (Homo sapiens, UniProt P37231); test: Cotransfection (CTF) / response element assays, PPARγ in CV-1 cells; format: cell-based; set-up: Gla4 Eff; other: response element assay, GAL4 chimeric system; A PPARγ bacterial galactosidase (GAL4) chimeric system is also used; settings: response element assay, GAL4 chimeric system
T9 sequence (P37231 238-505 limits assumed): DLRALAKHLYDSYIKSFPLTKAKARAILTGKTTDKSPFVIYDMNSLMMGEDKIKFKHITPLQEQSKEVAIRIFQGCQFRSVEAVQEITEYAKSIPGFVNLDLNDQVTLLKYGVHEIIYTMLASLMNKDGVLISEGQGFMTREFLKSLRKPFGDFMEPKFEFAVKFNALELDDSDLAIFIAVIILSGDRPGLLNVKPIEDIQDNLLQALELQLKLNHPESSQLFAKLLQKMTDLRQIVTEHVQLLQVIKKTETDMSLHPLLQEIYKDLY
Text: as §2

PPARγ [10] = target: T9, PPARγ; test: as above; format: cell-based; set-up: rows headed: PPARγ efficacy (% efficacy compared to a PPARγ full agonist set at 100%); PPARγ or PPARα are constitutively expressed using plasmids containing the cytomegalovirus promoter; settings: CV-1; range over CTF assays of Tables 1 and 3; read-out: PPARγ efficacy (% efficacy compared to a PPARγ full agonist set at 100%)
Text: as §2

PPARγ [11] = target: T9, PPARγ; test: as above; format: cell-based; set-up: Eff (γ); HD Eff; other: response element assay, HD PPRE reporter; LPL Eff; other: response element assay, LPL PPRE reporter; ApoA1 Eff; other: response element assay, ApoA1; PPARγ or PPARα are constitutively expressed using plasmids containing the cytomegalovirus promoter
Text: as §2

[12] = relative to a PPARγ full agonist

T7 sequence (Q14686 whole entry partner, species assumed, one chain of several, the tested form may be a part): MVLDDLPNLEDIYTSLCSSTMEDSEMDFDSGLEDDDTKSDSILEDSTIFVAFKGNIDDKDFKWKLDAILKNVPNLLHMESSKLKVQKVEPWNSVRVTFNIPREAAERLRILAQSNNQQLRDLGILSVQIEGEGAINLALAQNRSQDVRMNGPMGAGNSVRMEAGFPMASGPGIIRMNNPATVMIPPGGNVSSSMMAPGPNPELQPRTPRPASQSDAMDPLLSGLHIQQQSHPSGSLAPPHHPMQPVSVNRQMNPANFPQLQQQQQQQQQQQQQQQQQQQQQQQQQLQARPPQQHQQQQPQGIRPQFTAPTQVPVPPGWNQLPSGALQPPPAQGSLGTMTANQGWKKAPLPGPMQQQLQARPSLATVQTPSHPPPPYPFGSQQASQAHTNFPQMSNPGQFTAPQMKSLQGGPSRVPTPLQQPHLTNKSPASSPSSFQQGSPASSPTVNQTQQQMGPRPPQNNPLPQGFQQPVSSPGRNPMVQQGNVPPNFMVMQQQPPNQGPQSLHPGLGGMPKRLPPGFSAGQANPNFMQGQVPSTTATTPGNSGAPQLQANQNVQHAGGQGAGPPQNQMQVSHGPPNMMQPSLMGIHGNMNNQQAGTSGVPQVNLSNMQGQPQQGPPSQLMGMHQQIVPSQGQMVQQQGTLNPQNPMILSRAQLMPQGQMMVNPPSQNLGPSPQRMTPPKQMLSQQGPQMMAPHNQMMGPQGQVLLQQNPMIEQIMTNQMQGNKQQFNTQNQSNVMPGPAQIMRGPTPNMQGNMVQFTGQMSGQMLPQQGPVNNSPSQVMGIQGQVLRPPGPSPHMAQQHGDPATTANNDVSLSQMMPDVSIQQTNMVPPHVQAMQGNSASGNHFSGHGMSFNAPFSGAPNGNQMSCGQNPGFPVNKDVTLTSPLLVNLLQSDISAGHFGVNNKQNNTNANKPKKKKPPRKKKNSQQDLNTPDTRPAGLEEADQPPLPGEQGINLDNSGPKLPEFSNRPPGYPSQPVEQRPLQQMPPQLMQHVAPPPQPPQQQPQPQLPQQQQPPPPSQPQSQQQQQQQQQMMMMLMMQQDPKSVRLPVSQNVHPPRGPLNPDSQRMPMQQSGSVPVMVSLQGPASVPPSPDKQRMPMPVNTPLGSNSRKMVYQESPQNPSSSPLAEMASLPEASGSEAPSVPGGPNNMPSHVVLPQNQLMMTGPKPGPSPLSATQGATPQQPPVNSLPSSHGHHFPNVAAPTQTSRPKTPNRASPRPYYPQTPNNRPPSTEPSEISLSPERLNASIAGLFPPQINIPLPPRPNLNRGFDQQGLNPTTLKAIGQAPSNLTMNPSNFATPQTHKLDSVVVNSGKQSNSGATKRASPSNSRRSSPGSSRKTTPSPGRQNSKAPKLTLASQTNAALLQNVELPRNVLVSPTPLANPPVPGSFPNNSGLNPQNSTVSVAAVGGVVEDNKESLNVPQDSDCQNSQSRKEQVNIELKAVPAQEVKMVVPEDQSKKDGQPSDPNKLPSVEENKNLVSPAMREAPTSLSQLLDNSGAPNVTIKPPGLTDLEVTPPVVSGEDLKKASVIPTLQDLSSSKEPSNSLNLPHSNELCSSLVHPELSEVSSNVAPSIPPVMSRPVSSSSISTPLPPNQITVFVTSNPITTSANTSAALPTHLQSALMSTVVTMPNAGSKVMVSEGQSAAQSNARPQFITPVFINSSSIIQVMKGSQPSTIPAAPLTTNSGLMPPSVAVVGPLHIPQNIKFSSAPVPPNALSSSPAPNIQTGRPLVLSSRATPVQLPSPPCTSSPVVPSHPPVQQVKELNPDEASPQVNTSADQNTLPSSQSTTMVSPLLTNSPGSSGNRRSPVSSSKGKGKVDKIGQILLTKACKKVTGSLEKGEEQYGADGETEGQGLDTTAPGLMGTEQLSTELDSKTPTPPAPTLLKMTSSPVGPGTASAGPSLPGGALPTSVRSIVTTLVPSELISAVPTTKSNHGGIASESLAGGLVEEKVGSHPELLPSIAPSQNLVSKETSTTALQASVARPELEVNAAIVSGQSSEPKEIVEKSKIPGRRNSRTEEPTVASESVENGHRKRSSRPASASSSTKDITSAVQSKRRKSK
T6 sequence (Q15648 whole entry partner, species assumed, one chain of several, the tested form may be a part): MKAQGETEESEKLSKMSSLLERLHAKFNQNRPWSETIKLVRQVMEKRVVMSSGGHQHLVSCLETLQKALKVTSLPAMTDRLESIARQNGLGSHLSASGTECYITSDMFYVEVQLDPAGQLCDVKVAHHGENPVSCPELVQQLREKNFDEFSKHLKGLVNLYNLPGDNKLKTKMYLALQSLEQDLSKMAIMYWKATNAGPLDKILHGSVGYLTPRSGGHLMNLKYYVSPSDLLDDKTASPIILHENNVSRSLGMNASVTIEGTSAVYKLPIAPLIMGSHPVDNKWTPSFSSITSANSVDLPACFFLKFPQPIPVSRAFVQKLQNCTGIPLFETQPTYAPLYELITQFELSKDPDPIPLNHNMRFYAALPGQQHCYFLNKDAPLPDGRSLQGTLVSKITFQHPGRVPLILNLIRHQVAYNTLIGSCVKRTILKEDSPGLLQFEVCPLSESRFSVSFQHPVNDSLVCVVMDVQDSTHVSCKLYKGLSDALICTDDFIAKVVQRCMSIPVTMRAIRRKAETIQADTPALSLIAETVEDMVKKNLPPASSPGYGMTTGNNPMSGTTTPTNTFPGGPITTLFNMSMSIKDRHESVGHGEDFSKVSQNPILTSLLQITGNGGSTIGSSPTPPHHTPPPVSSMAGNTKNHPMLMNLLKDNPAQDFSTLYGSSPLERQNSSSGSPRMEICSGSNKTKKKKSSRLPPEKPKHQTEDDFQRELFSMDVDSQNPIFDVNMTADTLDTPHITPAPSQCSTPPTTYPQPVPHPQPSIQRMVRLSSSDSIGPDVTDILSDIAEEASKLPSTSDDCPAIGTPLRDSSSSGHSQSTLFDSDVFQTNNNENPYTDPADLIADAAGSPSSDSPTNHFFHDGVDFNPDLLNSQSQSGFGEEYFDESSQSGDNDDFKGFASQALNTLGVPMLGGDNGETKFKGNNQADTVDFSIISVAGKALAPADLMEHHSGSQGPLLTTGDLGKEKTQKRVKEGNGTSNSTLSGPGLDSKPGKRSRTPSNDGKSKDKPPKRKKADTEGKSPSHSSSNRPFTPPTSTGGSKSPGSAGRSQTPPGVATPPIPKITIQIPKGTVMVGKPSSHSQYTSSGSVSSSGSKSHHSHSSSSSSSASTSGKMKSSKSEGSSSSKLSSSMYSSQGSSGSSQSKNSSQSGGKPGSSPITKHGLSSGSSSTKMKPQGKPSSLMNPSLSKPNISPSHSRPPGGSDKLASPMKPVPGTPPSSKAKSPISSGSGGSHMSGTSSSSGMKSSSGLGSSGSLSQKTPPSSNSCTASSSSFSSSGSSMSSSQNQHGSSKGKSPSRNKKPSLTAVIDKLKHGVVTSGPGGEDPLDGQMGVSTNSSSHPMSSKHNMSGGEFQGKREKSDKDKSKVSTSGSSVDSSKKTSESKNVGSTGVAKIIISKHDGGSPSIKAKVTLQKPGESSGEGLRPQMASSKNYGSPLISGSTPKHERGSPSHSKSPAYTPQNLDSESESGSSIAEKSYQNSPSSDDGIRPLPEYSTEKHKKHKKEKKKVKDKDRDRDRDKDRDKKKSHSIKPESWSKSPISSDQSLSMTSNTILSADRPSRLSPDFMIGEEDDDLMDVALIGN

SMILES: COc1ccc(CCNC(=O)COc2ccc(C[C@H](OC)C(=O)O)cc2)cc1 [formula III, (2S)-3-(4-{[2-(4-methoxy-phenyl)-ethylcarbamoyl]-methoxy}-phenyl)-2-methoxy-propionic acid]
- IC50 (PPARα [1]): 113 nM
- IC50 (PPARγ [2]): 52 nM
- EC50 (PPARα [3]): 1300 nM
- Eff (α) (PPARα [3]; relative to reference molecule): 43 % efficacy
- EC50 [4]: 1920 nM
- CBP Eff [4, 12]: 15 % efficacy
- EC50 ([5]; read-out: PGC1 EC50): 2070 nM
- PGC1 Eff [5, 12]: 24 % efficacy
- TRAP220 efficacy [6]: Eff < 20
- TRAP220 Eff [6, 12]: 7 % efficacy
- EC50 ([7]; read-out: ASC2 EC50): 1380 nM
- ASC2 Eff [7, 12]: 15 % efficacy
- EC50 [8]: 3010 nM
- C33 Eff [8, 12]: 13 % efficacy
- melting point: 97 to 98 °C
- plasma glucose normalization (diabetic (db/db) mice; 1 mg/kg/day oral gavage): 42.7 % normalization
- plasma glucose normalization (diabetic (db/db) mice; 3 mg/kg/day oral gavage): 68.3 % normalization
- plasma glucose normalization (diabetic (db/db) mice; 10 mg/kg/day oral gavage): 96.1 % normalization
- plasma glucose normalization (diabetic (db/db) mice; 30 mg/kg/day oral gavage): 109.3 % normalization
- dose-dependent reduction in hematocrit levels, indicative of plasma volume expansion (diabetic (db/db) mice; db/db mice, 1, 3, 10, 30 mg/kg/day oral gavage): not seen
- Gla4 Eff (PPARγ [9]): 30 % efficacy
- EC50 (PPARγ [9]; read-out: Gla4 EC50): 1980 nM
- Emax (PPARγ [10]): 30 to 86%
- Eff (γ) (PPARγ [11]; CTF, Table 1, relative to PPARγ full agonist set at 100%): 60 % efficacy
- EC50 (PPARγ [11]; CTF, Table 1, read-out: EC50 (γ)): 1890 nM
- HD Eff (PPARγ [11]; response element assay, HD PPRE reporter): 54 % efficacy
- EC50 (PPARγ [11]; response element assay, HD PPRE reporter, read-out: HD EC50): 1140 nM
- LPL Eff (PPARγ [11]; response element assay, LPL PPRE reporter): 86 % efficacy
- EC50 (PPARγ [11]; response element assay, LPL PPRE reporter, read-out: LPL EC50): 1420 nM
